Results reported in PubChem BioAssay (NCI).
Values joined by “and” are separate entries in the source; they are usually repeats but may differ in a detail not shown here. Equal values may be shown once.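 Growth conditions: 96-well plates. Treatment: test compound, 48 hours, 5 concentrations. Analysis: linear interpolation between bracketing concentrations; unreached endpoints set to highest concentration. Here, GI50 denotes the concentration required for 50% inhibition of growth. Definition used: TGI = concentration required for complete inhibition of growth.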

Experiments:
Assay in all cases: DTP human tumour cell line panel, 48 h
A498 renal = tested on: A498 renal
HOP-62 NSCLC = tested on: HOP-62 NSCLC
HOP-92 NSCLC = tested on: HOP-92 NSCLC
HT29 colon = tested on: HT29 colon
LOX IMVI melanoma = tested on: LOX IMVI melanoma
M14 melanoma = tested on: M14 melanoma
NCI/ADR-RES ovarian = tested on: NCI/ADR-RES ovarian
SF-268 CNS = tested on: SF-268 CNS
SNB-75 CNS = tested on: SNB-75 CNS
UO-31 renal = tested on: UO-31 renal

Compound	GI50 (A498 renal)	TGI (A498 renal)	GI50 (HOP-62 NSCLC)	TGI (HOP-62 NSCLC)	GI50 (HOP-92 NSCLC)	TGI (HOP-92 NSCLC)	GI50 (HT29 colon)	TGI (HT29 colon)	GI50 (LOX IMVI melanoma)	TGI (LOX IMVI melanoma)	GI50 (M14 melanoma)	TGI (M14 melanoma)	GI50 (NCI/ADR-RES ovarian)	TGI (NCI/ADR-RES ovarian)	GI50 (SF-268 CNS)	TGI (SF-268 CNS)	GI50 (SNB-75 CNS)	TGI (SNB-75 CNS)	GI50 (UO-31 renal)	TGI (UO-31 renal)
Cc1cc(C)c2c(c1)N(C)c1ncnc(-n3cnc4cc(C)ccc43)c1CC2C (stereo not drawn)	1.41 µM	6.21 µM	4.71 µM	30 µM	4.1 µM	32.9 µM	3.13 µM	10.5 µM	4.82 µM	33.4 µM	2.6 µM	11.2 µM	3.05 µM	19.5 µM	6.04 µM	> 100 µM	2.8 µM	13.2 µM	2.5 µM	16.2 µM
COc1cc(C)[nH]c(=O)c1CNC(=O)c1c(C)n([C@H](C)C2CCN(CC(F)(F)F)CC2)c2ccccc12	28.2 µM	> 100 µM	> 100 µM	> 100 µM	78.5 µM	> 100 µM	38.5 µM	> 100 µM	41.6 µM	> 100 µM	67.8 µM	> 100 µM	77.2 µM	> 100 µM	80.6 µM	> 100 µM	36.1 µM	> 100 µM	28.2 µM	> 100 µM
CC(=O)N[C@@H](Cc1ccc(OP(=O)(O)O)cc1)C(=O)N[C@H]1CCC(=O)N2CCC[C@@H](C(=O)NC3CCc4ccccc43)N2C1=O (stereo partly drawn)	> 25 µM	> 25 µM	> 25 µM	> 25 µM	> 25 µM	> 25 µM	> 25 µM	> 25 µM	> 25 µM	> 25 µM	> 25 µM	> 25 µM	> 25 µM	> 25 µM	> 25 µM	> 25 µM	> 25 µM	> 25 µM	> 25 µM	> 25 µM
CCOc1ccc2c(c1)C(=O)c1c-2n(CCCN=[N+]=[N-])c(=O)c2cc([N+](=O)[O-])ccc12	18.5 µM	58.7 µM	3 µM	43.6 µM	7.95 µM	46.7 µM	21.4 µM	> 100 µM	3.02 µM	> 100 µM	3.63 µM	> 100 µM	3.91 µM	> 100 µM	1.42 µM	38.4 µM	17.3 µM	39.9 µM	2.23 µM	11.5 µM
O=C(/C=C/C=C/c1ccc2c(c1)OCO2)N/N=C\c1ccc(O)cc1O	2.07 µM	7.15 µM	1.61 µM	15.7 µM	1.98 µM	13.5 µM	3.78 µM	26.2 µM	1.18 µM	10.1 µM	1.67 µM	11.5 µM	1.29 µM	7.6 µM	1.73 µM	17.1 µM	1.89 µM	9.41 µM	1.47 µM	8.75 µM
Cn1c(=O)c(Oc2ccc(F)cc2F)cc2cnc(NCC(C)(C)O)nc21	> 25 µM	> 25 µM	> 25 µM	> 25 µM	> 25 µM	> 25 µM	> 25 µM	> 25 µM	> 25 µM	> 25 µM	> 25 µM	> 25 µM	> 25 µM	> 25 µM	> 25 µM	> 25 µM	> 25 µM	> 25 µM	> 25 µM	> 25 µM
CCC(C)C1NC(=O)C(NC(=O)C(CC(C)C)N(C)C(=O)[C@@H]2CC(O)CN2C(=O)[C@H](C)O)C(C)OC(=O)[C@H](Cc2ccc(OC)cc2)N(C)C(=O)[C@@H]2CCCN2C(=O)[C@H](CC(C)C)NC(=O)C(C)C(=O)[C@H](C(C)C)OC(=O)CC1O (stereo partly drawn)	0.325 µM	4.84 µM and 3.01 µM	0.028 µM	1.4 µM and 0.394 µM	0.0127 µM	1.99 µM and 0.285 µM	0.0169 µM	2.23 µM and 1.09 µM	0.0218 µM	1.06 µM and 0.193 µM	0.0114 µM	0.762 µM and 0.202 µM	–	> 100 µM	0.0451 µM	1.7 µM and 1.04 µM	0.0338 µM	1.25 µM and 0.614 µM	0.581 µM	5.65 µM
Cc1cc(-c2cc(OC(=O)c3ccccc3)ccc2Cl)cc2nnc(Nc3ccc(OCCN4CCCC4)cc3)nc12	9.84 µM	–	1.55 µM	3.27 µM	0.303 µM	1.69 µM	1.61 µM	3.04 µM	1.45 µM	2.95 µM	1.64 µM	3.24 µM	1.86 µM	4.1 µM	1.88 µM	3.75 µM	0.508 µM	1.89 µM	1.19 µM	2.44 µM
O=C(CCN1CCCN(c2cnc3ccccc3n2)CC1)c1csc2ccccc12	96.7 µM	> 100 µM	28.1 µM	77.3 µM	15.8 µM	34 µM	13 µM	28.2 µM	17.2 µM	31.3 µM	19.8 µM	39.3 µM	21.3 µM	49.5 µM	19.4 µM	38.6 µM	17.2 µM	31.6 µM	14.8 µM	28 µM
CN(C)C1CN(C(=O)c2cc(-c3ccc4ncnc(N5CCc6cc(F)c(Cl)cc65)c4c3)cnc2N)C1	0.254 µM	0.832 µM	0.586 µM	> 28.1 µM	0.331 µM	2.17 µM	0.543 µM	> 100 µM	0.458 µM	> 100 µM	0.886 µM	> 100 µM	1.71 µM	> 100 µM	0.652 µM	> 100 µM	0.195 µM	2.02 µM	0.237 µM	> 100 µM
COC(=O)Nc1nc2ccc(C(=O)c3ccc(F)cc3)cc2[nH]1	0.403 µM	4.47 µM	0.682 µM	29.1 µM	4.81 µM	50.3 µM	0.0785 µM	> 100 µM	0.762 µM	> 100 µM	0.173 µM	> 100 µM	0.108 µM	0.562 µM	0.644 µM	7.65 µM	0.205 µM	12.4 µM	2.29 µM	> 100 µM
